Assay results published in patent US8324245B2, “Quinoline derivative and quinazoline derivative inhibiting self-phosphorylation of hepatocytus proliferator receptor, and medicinal composition containing the same” (Kyowa Hakko Kirin Co., Ltd., priority 2001, dated 2012).

Molecular target: T1, met (HGF receptor) in human gastric cancer cells MKN45 (Homo sapiens, UniProt P08581)
T1 construct: endogenous in cells; host or cells: MKN45 human gastric cancer cells
Assay: Inhibitory activity against met-autophosphorylation using ELISA method (2), MKN45 cells, HGF-independent
Format: cell-based
In short: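 Met autophosphorylation was read by sandwich ELISA: phosphotyrosine capture (PY20), anti-HGF receptor detection, peroxidase read-out at 450 nm. Lysates came from MKN45 gastric cancer cells kept in 0.1% FCS RPMI and treated 1 h at 37 °C with test compound, with no added HGF.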

T1 sequence (P08581 25-1390): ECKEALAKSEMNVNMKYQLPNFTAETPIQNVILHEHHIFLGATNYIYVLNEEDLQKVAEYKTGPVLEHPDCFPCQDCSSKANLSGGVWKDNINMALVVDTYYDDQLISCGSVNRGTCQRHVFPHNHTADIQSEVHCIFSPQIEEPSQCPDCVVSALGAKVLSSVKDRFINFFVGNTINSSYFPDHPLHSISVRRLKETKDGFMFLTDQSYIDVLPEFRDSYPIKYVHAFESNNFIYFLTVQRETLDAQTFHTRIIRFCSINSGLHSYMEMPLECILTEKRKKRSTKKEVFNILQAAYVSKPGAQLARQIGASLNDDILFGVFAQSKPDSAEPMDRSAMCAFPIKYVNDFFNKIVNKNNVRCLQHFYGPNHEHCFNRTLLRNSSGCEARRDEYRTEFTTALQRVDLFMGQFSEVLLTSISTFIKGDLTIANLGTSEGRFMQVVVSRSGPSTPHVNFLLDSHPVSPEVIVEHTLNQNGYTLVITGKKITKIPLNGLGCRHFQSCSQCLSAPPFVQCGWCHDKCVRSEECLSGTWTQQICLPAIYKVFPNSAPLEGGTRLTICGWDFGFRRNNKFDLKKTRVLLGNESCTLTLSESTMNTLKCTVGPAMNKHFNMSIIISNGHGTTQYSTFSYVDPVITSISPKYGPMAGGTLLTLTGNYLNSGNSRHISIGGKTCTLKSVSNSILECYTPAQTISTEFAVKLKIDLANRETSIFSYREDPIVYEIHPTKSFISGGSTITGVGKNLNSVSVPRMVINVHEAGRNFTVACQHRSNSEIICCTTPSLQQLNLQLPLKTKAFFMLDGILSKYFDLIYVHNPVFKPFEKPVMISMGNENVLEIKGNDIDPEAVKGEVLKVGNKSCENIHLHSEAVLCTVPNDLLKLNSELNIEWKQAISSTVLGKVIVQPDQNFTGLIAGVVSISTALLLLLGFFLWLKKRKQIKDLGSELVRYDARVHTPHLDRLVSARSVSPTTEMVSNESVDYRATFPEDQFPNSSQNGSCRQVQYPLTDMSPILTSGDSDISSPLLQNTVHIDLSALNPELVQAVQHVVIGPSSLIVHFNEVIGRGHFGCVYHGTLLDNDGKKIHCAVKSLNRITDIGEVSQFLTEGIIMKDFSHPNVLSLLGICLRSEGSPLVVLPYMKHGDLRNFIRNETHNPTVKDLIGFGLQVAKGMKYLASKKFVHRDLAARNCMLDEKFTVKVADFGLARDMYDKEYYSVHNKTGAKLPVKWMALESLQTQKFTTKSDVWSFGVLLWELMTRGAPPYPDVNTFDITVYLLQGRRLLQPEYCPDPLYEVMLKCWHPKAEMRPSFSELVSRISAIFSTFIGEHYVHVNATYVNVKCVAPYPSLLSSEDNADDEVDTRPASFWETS

Compound | IC50 [nM]
COc1cc2nccc(Oc3ccc(NC(=S)NC(=O)Cc4ccc(C)cc4)cc3)c2cc1OC [Example 168, 1-[4-(6,7-dimethoxyquinolin-4-yloxy)phenyl]-3-(2-p-tolylacetyl)thiourea] | 306
COc1cc2nccc(Oc3ccc(NC(=S)NC(=O)Cc4ccccc4C)c(F)c3)c2cc1OC [Example 170, 1-[4-(6,7-dimethoxyquinolin-4-yloxy)-2-fluorophenyl]-3-(2-o-tolylacetyl)thiourea] | 274
COc1cc2nccc(Oc3ccc(NC(=S)NC(=O)Cc4cccc(Cl)c4)cc3)c2cc1OC [Example 171, 1-[2-(3-chlorophenyl)acetyl]-3-[4-(6,7-dimethoxyquinolin-4-yloxy)phenyl]thiourea] | 282
COc1cc2nccc(Oc3ccc(NC(=S)NC(=O)Cc4cccc(Cl)c4)cc3Cl)c2cc1OC [Example 174, 1-[3-chloro-4-(6,7-dimethoxyquinolin-4-yloxy)phenyl]-3-[2-(3-chlorophenyl)acetyl]thiourea] | 252
COc1cc2nccc(Oc3ccc(NC(=S)NC(=O)CCCC(C)C)c(F)c3)c2cc1OC [Example 178, 1-[4-(6,7-dimethoxyquinolin-4-yloxy)-2-fluorophenyl]-3-(5-methyl-hexanoyl)thiourea] | 268
COc1cc2nccc(Oc3ccc(NC(=S)NC(=O)CCCC(C)C)cc3F)c2cc1OC [Example 179, 1-[4-(6,7-dimethoxyquinolin-4-yloxy)-3-fluorophenyl]-3-(5-methyl-hexanoyl)thiourea] | 261
COCCC(=O)NC(=S)Nc1ccc(Oc2ccnc3cc(OC)c(OC)cc23)c(Cl)c1 [Example 180, 1-[3-chloro-4-(6,7-dimethoxyquinolin-4-yloxy)phenyl]-3-(3-methoxy-propionyl)thiourea] | 2560
COc1cccc(CC(=O)NC(=S)Nc2ccc(Oc3ccnc4cc(OC)c(OC)cc34)cc2F)c1 [Example 185, 1-[4-(6,7-dimethoxyquinolin-4-yloxy)-2-fluorophenyl]-3-[2-(3-methoxyphenyl)acetyl]thiourea] | 248
COc1cccc(CC(=O)NC(=S)Nc2ccc(Oc3ccnc4cc(OC)c(OC)cc34)c(Cl)c2)c1 [Example 186, 1-[3-chloro-4-(6,7-dimethoxyquinolin-4-yloxy)phenyl]-3-[2-(3-methoxyphenyl)acetyl]thiourea] | 234
COc1cc2nccc(Oc3ccc(NC(=S)NC(=O)Cc4ccc(Cl)cc4)cc3)c2cc1OC [Example 187, 1-[2-(4-chlorophenyl)acetyl]-3-[4-(6,7-dimethoxyquinolin-4-yloxy)phenyl]thiourea] | 258
COc1cc2nccc(Oc3ccc(NC(=S)NC(=O)Cc4ccc(C)cc4)cc3F)c2cc1OC [Example 190, 1-[4-(6,7-dimethoxyquinolin-4-yloxy)-3-fluorophenyl]-3-(2-p-tolylacetyl)thiourea] | 224
COc1cc2nccc(Oc3ccc(NC(=S)NC(=O)CC4CCC(C)CC4)c(F)c3)c2cc1OC (stereo not shown) [Example 191, 1-[4-(6,7-dimethoxyquinolin-4-yloxy)-2-fluorophenyl]-3-[2-(4-methyl-cyclohexyl)acetyl]thiourea] | 977
CCCCOCC(=O)NC(=S)Nc1ccc(Oc2ccnc3cc(OC)c(OC)cc23)c(Cl)c1 [Example 193, 1-(2-butoxyacetyl)-3-[3-chloro-4-(6,7-dimethoxyquinolin-4-yloxy)phenyl]thiourea] | 444

Results, then the compound that gave them:

IC50 [nM] | Compound
276 | COc1ccccc1CC(=O)NC(=S)Nc1ccc(Oc2ccnc3cc(OC)c(OC)cc23)cc1F [Example 169, 1-[4-(6,7-dimethoxyquinolin-4-yloxy)-2-fluorophenyl]-3-[2-(2-methoxyphenyl)acetyl]thiourea]
423 | COc1cc2nccc(Oc3ccc(NC(=S)NC(=O)Cc4cccc(Cl)c4)c(F)c3)c2cc1OC [Example 172, 1-[2-(3-chlorophenyl)acetyl]-3-[4-(6,7-dimethoxyquinolin-4-yloxy)-2-fluorophenyl]thiourea]
222 | COc1cc2nccc(Oc3ccc(NC(=S)NC(=O)Cc4cccc(Cl)c4)cc3F)c2cc1OC [Example 173, 1-[2-(3-chlorophenyl)acetyl]-3-[4-(6,7-dimethoxyquinolin-4-yloxy)-3-fluorophenyl]thiourea]
955 | COc1cc2nccc(Oc3ccc(NC(=S)NC(=O)Cc4cccc(C)c4)c(F)c3)c2cc1OC [Example 175, 1-[4-(6,7-dimethoxyquinolin-4-yloxy)-2-fluorophenyl]-3-(2-m-tolylacetyl)thiourea]
221 | COc1cc2nccc(Oc3ccc(NC(=S)NC(=O)Cc4cccc(C)c4)cc3F)c2cc1OC [Example 176, 1-[4-(6,7-dimethoxyquinolin-4-yloxy)-3-fluorophenyl]-3-(2-m-tolylacetyl)thiourea]
267 | COc1cc2nccc(Oc3ccc(NC(=S)NC(=O)CCCC(C)C)cc3)c2cc1OC [Example 177, 1-[4-(6,7-dimethoxyquinolin-4-yloxy)phenyl]-3-(5-methyl-hexanoyl)thiourea]
243 | COc1cccc(CC(=O)NC(=S)Nc2ccc(Oc3ccnc4cc(OC)c(OC)cc34)c(F)c2)c1 [Example 181, 1-[4-(6,7-dimethoxyquinolin-4-yloxy)-3-fluorophenyl]-3-[2-(3-methoxyphenyl)acetyl]thiourea]
256 | COc1cc2nccc(Oc3ccc(NC(=S)NC(=O)Cc4ccccc4Cl)c(F)c3)c2cc1OC [Example 182, 1-[2-(2-chlorophenyl)acetyl]-3-[4-(6,7-dimethoxyquinolin-4-yloxy)-2-fluorophenyl]thiourea]
224 | COc1cc2nccc(Oc3ccc(NC(=S)NC(=O)Cc4ccccc4Cl)cc3Cl)c2cc1OC [Example 183, 1-[3-chloro-4-(6,7-dimethoxyquinolin-4-yloxy)phenyl]-3-[2-(2-chlorophenyl)acetyl]thiourea]
268 | COc1cccc(CC(=O)NC(=S)Nc2ccc(Oc3ccnc4cc(OC)c(OC)cc34)cc2)c1 [Example 184, 1-[4-(6,7-dimethoxyquinolin-4-yloxy)phenyl]-3-[2-(3-methoxyphenyl)acetyl]thiourea]
252 | COc1cc2nccc(Oc3ccc(NC(=S)NC(=O)Cc4ccc(Cl)cc4)c(F)c3)c2cc1OC [Example 188, 1-[2-(4-chlorophenyl)acetyl]-3-[4-(6,7-dimethoxyquinolin-4-yloxy)-2-fluorophenyl]thiourea]
232 | COc1cc2nccc(Oc3ccc(NC(=S)NC(=O)Cc4ccc(Cl)cc4)cc3Cl)c2cc1OC [Example 189, 1-[3-chloro-4-(6,7-dimethoxyquinolin-4-yloxy)phenyl]-3-[2-(4-chlorophenyl)acetyl]thiourea]
687 | COc1cc2nccc(Oc3ccc(NC(=S)NC(=O)CC4CCC(C)CC4)cc3F)c2cc1OC (stereo not shown) [Example 192, 1-[4-(6,7-dimethoxyquinolin-4-yloxy)-3-fluorophenyl]-3-[2-(4-methyl-cyclohexyl)acetyl]thiourea]
319 | COc1cc2nccc(Oc3ccc(NC(=S)NC(=O)Cc4cccc(F)c4F)c(F)c3)c2cc1OC [Example 194, 1-[2-(2,3-difluorophenyl)acetyl]-3-[4-(6,7-dimethoxyquinolin-4-yloxy)-2-fluorophenyl]thiourea]
291 | COc1cc2nccc(Oc3ccc(NC(=S)NC(=O)Cc4cc(F)ccc4F)cc3F)c2cc1OC [Example 195, 1-[2-(2,5-difluorophenyl)acetyl]-3-[4-(6,7-dimethoxyquinolin-4-yloxy)-3-fluorophenyl]thiourea]
